What was measured:
[1] = test system: patients with chronic heart failure (HF); assay: Clinical trial of rosuvastatin vs placebo in chronic heart failure, analysed by baseline galectin-3 category; type: in vivo, human
Text: A clinical trial enrolled patients with chronic heart failure (HF) (New York Heart Association functional class II, III or IV) and with left ventricular ejection fraction less than or equal to 40% (less than or equal to 35% for patients in New York Heart Association functional class II). The design and primary results of the trial are reported in published literature [J. Kjekshus et al., “Rosuvastatin in Older Patients with Systolic Heart Failure.” N Engl J. Med. 2007 Nov. 29; 357(22):2248-61]. Patients were randomly assigned to receive 10 milligrams of rosuvastatin or placebo per day. Of the patients in the trial, a subset of 1,462 subjects also participated in a sub-study in which blood was collected at baseline, defined as the time of enrollment in the trial. Baseline galectin-3 levels were evaluated in these […] subjects.
Blood plasma samples were drawn at baseline from participants in a non-fasting state. All samples were stored at −80° C. Plasma galectin-3 levels were determined on these plasma specimens using a commercial enzyme-linked immunosorbent assay (BGM Galectin-3 Assay; BG Medicine, Waltham, Mass.) according to the manufacturer's instructions.
Determination of galectin-3 concentration in serum samples was assessed using ELISA kits (BGM Galectin-3 Assay; BG Medicine Inc., Waltham, Mass., USA). The assay sensitivity (lowest concentration different from zero) was 0.96 ng/mL. Intra- and inter-assay variations were less than 8% and 10% respectively.
For the main objective of investigating the effects of rosuvastatin treatment according to baseline galectin-3 level, galectin-3 categories were defined based on the median baseline value across all 1,462 subjects for whom a galectin-3 measurement was available. For each of six endpoints, a formal interaction test was conducted within a Cox proportional hazards model comprising treatment group (binary variable), galectin-3 category (dichotomous variable), and the interaction term. Subsequently, Cox proportional hazards models were used to estimate the hazard ratios (HRs) and 95% confidence intervals (CIs) comparing rosuvastatin and placebo treatments by galectin-3 categories. Fully adjusted models included the following 11 covariates, all evaluated at baseline: age (per year), gender, LVEF (per unit), NYHA class (due to the small number of subjects with class IV, class III and IV were combined), body mass index (BMI) (per unit), diabetes mellitus (yes/no), intermittent claudication (yes/no), heart rate (per unit), estimated glomerular filtration rate (eGFR) (per unit), the ratio of apolipoprotein B to apolipoprotein A1, and N-terminal B-type natriuretic peptide (NT-proBNP) (the variable NT-proBNP was logarithmically transformed using base e). Incident event rates were analyzed using Poisson regression. Baseline characteristics were compared by galectin-3 category using Student's t-test for variables expressed as means and standard deviation. All P-values are two two-tailed. All analyses were performed with SAS software, version 9.1 (SAS Institute), or R software, version 2.

[2] = test system: heart failure patients; settings: unselected heart failure patients; CORONA and GISSI-HF trials; cited from earlier work

CC(C)c1nc(N(C)S(C)(=O)=O)nc(-c2ccc(F)cc2)c1/C=C/[C@@H](O)C[C@@H](O)CC(=O)O [Rosuvastatin, rosuvastatin]
Rate of subjects experiencing the primary outcome, Rosuvastatin rate ([1]; Galectin-3 > 19.0 ng/mL, 728 subjects): 15.1 per 100 person-years of follow-up | Rate of subjects experiencing the primary outcome, Rosuvastatin rate ([1]; Galectin-3 ≦ 19.0 ng/mL, 734 subjects): 7.8 per 100 person-years of follow-up | hazard ratio (HR) for the primary endpoint, rosuvastatin compared to placebo ([1]; baseline galectin-3 >19.0 ng/mL (N=728), 10 mg rosuvastatin per day, adjusted HR): 1.07 | rate of primary events ([1]; baseline galectin-3 >19.0 ng/mL, rosuvastatin group, 10 mg per day): 15.1 events per 100 patient-years | hazard ratio (HR) for the primary endpoint (earlier of cardiovascular death, non-fatal myocardial infarction or non-fatal stroke), rosuvastatin compared to placebo ([1]; baseline galectin-3 less than or equal to 19.0 ng/mL (N=734), 10 mg rosuvastatin per day, adjusted for 11 clinical and biochemical covariates): 0.65 | difference in rate of primary events, rosuvastatin compared to placebo ([1]; baseline galectin-3 less than or equal to 19.0 ng/mL, 7.8 vs 11.2 events per 100 patient-years): 30.4% | rate of primary events ([1]; baseline galectin-3 less than or equal to 19.0 ng/mL, subjects randomized to rosuvastatin 10 mg per day): 7.8 events per 100 patient-years | clinical benefit of statin therapy in heart failure patients [2]: did not demonstrate a significant clinical benefit

— patent publication US20120029003A1, “GALECTIN-3 AND STATIN THERAPY” (BG Medicine, Inc., priority 2010, published 2012)
